Like-named read-outs stand apart in the source and are kept apart here.

The subject of assay [1] is MM1.S (multiple myeloma) cells. Briefly: In vitro cell proliferation, MM1.S multiple myeloma cells (CellTiter-Glo, ATP). It counts as cell-based. Particulars: Homo sapiens, MM1.S, 72 h, read-out: Prolif MM1S ATP (EC50). As for the experimental part: BaF3, a murine interleukin-3 dependent pro-B cell line, parental cells, BaF3 PIM1 cells, BaF3 PIM2 cells, and MM1.S (multiple myeloma) cells were seeded at 2 k/well, 5 k/well, 5 k/well, and 10 k/well respectively, in a 384-well plate, at 45 μL/well. Test compound was added at 5 μL/well. BaF3 cells (parental and transfected) were incubated overnight, while MM1.S cells were incubated for 72 hours at 37° C., 5% CO2. […] IC50/EC50 values for the test compound were calculated.
For orientation: Cellular ATP, detected with luciferase, serves as a proxy for viable cell number.

A further assay concerns BaF3 parental cells. Briefly: In vitro cell proliferation, BaF3 parental line + IL3 (CellTiter-Glo). It is filed as cell-based, murine. Conditions: read-out: Prolif BaF3 + IL3 (IC50).
The next assay concerns the target PIM1 (Homo sapiens (Human), UniProt P11309). Briefly: Pim kinase inhibition, PIM1 LC3K (Example 901). It counts as biochemical.
[2] abbreviates: Mus musculus, BaF3, BaF3 parental cells with IL-3, incubated overnight.

PIM1, sequence (P11309 whole entry): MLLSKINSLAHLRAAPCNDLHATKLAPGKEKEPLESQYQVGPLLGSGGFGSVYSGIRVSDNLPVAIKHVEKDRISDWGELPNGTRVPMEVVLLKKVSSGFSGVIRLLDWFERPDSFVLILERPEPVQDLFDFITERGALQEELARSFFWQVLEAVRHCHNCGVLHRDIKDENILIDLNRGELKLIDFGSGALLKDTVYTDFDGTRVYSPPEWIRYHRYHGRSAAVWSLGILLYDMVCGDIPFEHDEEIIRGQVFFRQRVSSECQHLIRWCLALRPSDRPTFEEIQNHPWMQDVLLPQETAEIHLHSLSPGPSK
Text for PIM1: Determination of the Pim kinase activity of a Formula I compound is possible by a number of direct and indirect detection methods.

The term EC50 denotes the concentration needed to bring the measured effect to its halfway point. As to `Cn1ncc(NC(=O)c2nc(-c3c(F)cccc3F)sc2N)c1C1CC[C@@H](N)[C@@H](F)CC1` (single isomer, unassigned) [Example 381], the EC50 in assay [1] is 3500 nM.
For `Cn1ncc(NC(=O)c2nc(-c3c(F)cccc3F)sc2N)c1N1CCC(O)CC(F)(F)C1` (single isomer, unassigned) [Example 371, 5-amino-N-[5-(3,3-difluoro-5-hydroxy-azepan-1-yl)-1-methyl-pyrazol-4-yl]-2-(2,6-difluorophenyl)thiazole-4-carboxamide], the EC50 in assay [1] amounted to 1300 nM.
By IC50 is commonly meant the concentration at which inhibition is half-maximal. Regarding `Cn1ncc(NC(=O)c2nc(-c3c(F)cccc3F)sc2N)c1N1CC[C@@H]2OC(=O)N[C@]2(C)CC1` [Example 509, 5-amino-2-(2,6-difluorophenyl)-N-(1-methyl-5-((3aR,8aS)-3a-methyl-2-oxotetrahydro-2H-oxazolo[5,4-d]azepin-6(7H,8H,8aH)-yl)-1H-pyrazol-4-yl)thiazole-4-carboxamide], in the assay with BaF3 parental cells (setting [2]), the IC50 was greater than 25000 nM.
For the compound `CC(=O)O[C@H]1CCN(c2c(NC(=O)c3nc(-c4c(F)cccc4F)sc3N)cnn2C)CC[C@H]1N` [Example 487, [(4S,5R)-5-amino-1-[4-[[5-amino-2-(2,6-difluorophenyl)thiazole-4-carbonyl]amino]-2-methyl-pyrazol-3-yl]azepan-4-yl]acetate], the IC50 in the assay with BaF3 parental cells (setting [2]) is 20100 nM.
With `Cn1ncc(NC(=O)c2nc(-c3c(F)cccc3F)sc2N)c1N1CCC(N)C(O)CC1` (single isomer, unassigned) [Example 333, 5-amino-N-[5-(4-amino-5-hydroxy-azepan-1-yl)-1-methyl-pyrazol-4-yl]-2-(2,6-difluorophenyl)thiazole-4-carboxamide], the IC50 with BaF3 parental cells (BaF3 parental cells with IL-3, incubated overnight) was greater than 25000 nM.
A word on the Ki: it is the equilibrium dissociation constant of an inhibitor or competing ligand from its target. Consider `Cn1ncc(NC(=O)c2nc(-c3c(F)cccc3F)sc2N)c1N1CCC[C@H](NCC2COC2)CC1` [Example 342, 5-amino-2-(2,6-difluorophenyl)-N-[1-methyl-5-[(4S)-4-(oxetan-3-ylmethylamino)azepan-1-yl]pyrazol-4-yl]thiazole-4-carboxamide], for which the Ki at PIM1 came to 0.075 nM.
In turn, `Cc1ccc(F)c(-c2nc(C(=O)Nc3cnn(C)c3N3CCNCC(F)(F)C3)c(N)s2)c1` [Example 105, 5-Amino-N-(5-(6,6-difluoro-1,4-diazepan-1-yl)-1-methyl-1H-pyrazol-4-yl)-2-(2-fluoro-5-methylphenyl)thiazole-4-carboxamide] registered a Ki on PIM1 of 0.019 nM.
At PIM1, `Nc1sc(-c2c(F)cccc2F)nc1C(=O)Nc1cnn(CC(F)(F)F)c1N1CCCCC(N)C1` (stereo not shown) [Example 302, 5-Amino-2-(2,6-difluoro-phenyl)-thiazole-4-carboxylic acid [5-(3-amino-azepan-1-yl)-1-(2,2,2-trifluoro-ethyl)-1H-pyrazol-4-yl]-amide] registered a Ki of 0.175 nM.
`Cn1ncc(NC(=O)c2nc(-c3c(F)cncc3F)sc2N)c1N1CC[C@H](N)[C@@H](F)CC1` [Example 471, 5-amino-N-[5-[(4S,5S)-4-amino-5-fluoro-azepan-1-yl]-1-methyl-pyrazol-4-yl]-2-(3,5-difluoro-4-pyridyl)thiazole-4-carboxamide]: the affinity on PIM1 corresponds to a Ki of 0.242 nM.
On PIM1, `Cc1ncccc1-c1nc(C(=O)Nc2cnn(C)c2N2CC[C@@H](N)[C@H](F)CC2)c(N)s1` [Example 430, 5-amino-N-[5-[(4R,5R)-4-amino-5-fluoro-azepan-1-yl]-1-methyl-pyrazol-4-yl]-2-(2-methyl-3-pyridyl)thiazole-4-carboxamide] yielded an inhibition constant Ki of 1.17 nM.
Same read-out and setting: under `CO[C@@H]1CCN(c2c(NC(=O)c3nc(-c4c(F)cccc4F)sc3N)cnn2C2CC2)CC[C@@H]1N` [Example 386, 5-amino-N-(5-((4S,5R)-4-amino-5-methoxyazepan-1-yl)-1-cyclopropyl-1H-pyrazol-4-yl)-2-(2,6-difluorophenyl)thiazole-4-carboxamide] stands 0.103 nM; under `Cn1cc(-c2nc(C(=O)Nc3cnn(C)c3N3CCC[C@H](N)CC3)c(N)s2)cn1` [Example 419, 5-amino-N-[5-[(4S)-4-aminoazepan-1-yl]-1-methyl-pyrazol-4-yl]-2-(1-methylpyrazol-4-yl)thiazole-4-carboxamide], 0.785 nM.
As to `COC1CCC2(c3c(NC(=O)c4nc(-c5ccccc5F)sc4N)cnn3C)CCC1N2` (stereo not shown) [Example 423, 5-amino-2-(2-fluorophenyl)-N-[5-(2-methoxy-8-azabicyclo[3.2.1]octan-5-yl)-1-methyl-pyrazol-4-yl]thiazole-4-carboxamide], the Ki on PIM1 came to 0.362 nM.
For the compound `COC1(C)CC(N)CCN(c2c(NC(=O)c3nc(-c4ccncc4F)sc3N)cnn2C)C1` (stereo not shown) [Example 475, 5-amino-N-[5-(5-amino-3-methoxy-3-methyl-azepan-1-yl)-1-methyl-pyrazol-4-yl]-2-(3-fluoro-4-pyridyl)thiazole-4-carboxamide], at PIM1, the Ki amounted to 0.212 nM.
Regarding `Cn1ncc(NC(=O)c2nc(-c3c(F)cccc3F)sc2N)c1N1CCC(N)C(C(F)F)CC1` (single isomer, unassigned) [Example 511, 5-amino-N-[5-[4-amino-5-(difluoromethyl)azepan-1-yl]-1-methyl-pyrazol-4-yl]-2-(2,6-difluorophenyl)thiazole-4-carboxamide], the IC50 in the assay on BaF3 parental cells (setting [2]) amounted to 24300 nM.
For the compound `CCn1ncc(NC(=O)c2nc(-c3ccccc3F)sc2N)c1N1CCC(N)C(F)CC1` (single isomer, unassigned) [Example 373, 5-amino-N-[5-(4-amino-5-fluoro-azepan-1-yl)-1-ethyl-pyrazol-4-yl]-2-(2-fluorophenyl)thiazole-4-carboxamide], the Ki at PIM1 turned out to be 0.373 nM.
Turning to `C[C@H]1CN(c2c(NC(=O)c3nc(-c4c(F)cccc4F)sc3N)cnn2CC(F)(F)F)CCN1` [Example 301, (S)-5-Amino-2-(2,6-difluorophenyl)-N-(5-(3-methylpiperazin-1-yl)-1-(2,2,2-trifluoroethyl)-1H-pyrazol-4-yl)thiazole-4-carboxamide], the Ki on PIM1 turned out to be 2.1 nM.
Regarding `Cn1ncc(NC(=O)c2nc(-c3c(F)cccc3F)sc2N)c1N1CCC(N)CC(C)(F)C1` (stereo not shown) [Example 256, 5-Amino-2-(2,6-difluoro-phenyl)-thiazole-4-carboxylic acid [5-(5-amino-3-fluoro-3-methyl-azepan-1-yl)-1-methyl-1H-pyrazol-4-yl]-amide], at PIM1, the affinity, expressed as Ki, was 0.009 nM.
Compound `Cc1nn(C)cc1-c1nc(C(=O)Nc2cnn(C)c2N2CC[C@@H](N)[C@H](F)CC2)c(N)s1` [Example 437, 5-amino-N-[5-[(4R,5R)-4-amino-5-fluoro-azepan-1-yl]-1-methyl-pyrazol-4-yl]-2-(1,3-dimethylpyrazol-4-yl)thiazole-4-carboxamide] returned an inhibition constant (Ki) at PIM1 of 0.477 nM.
Same read-out and setting: as for `Nc1sc(-c2c(F)cccc2F)nc1C(=O)Nc1cnn(CC(F)F)c1N1CC[C@@H](N)CC(F)(F)C1` [Example 281], the figure is 0.02 nM; as for `CCn1ncc(NC(=O)c2nc(-c3c(F)cccc3F)sc2N)c1N1CC[C@H](OC)[C@@H](N)CC1` [Example 364, 5-amino-N-(5-((4S,5S)-4-amino-5-methoxyazepan-1-yl)-1-ethyl-1H-pyrazol-4-yl)-2-(2,6-difluorophenyl)thiazole-4-carboxamide], 0.247 nM.
Turning to `Cc1cc(-c2nc(C(=O)Nc3cnn(C)c3N3CC[C@@H](N)[C@H](F)CC3)c(N)s2)cc(C)n1` [Example 443, 5-amino-N-[5-[(4R,5R)-4-amino-5-fluoro-azepan-1-yl]-1-methyl-pyrazol-4-yl]-2-(2,6-dimethyl-4-pyridyl)thiazole-4-carboxamide], the Ki at PIM1 was found to be 2.54 nM.
